# Measured values taken from the supplement of paper PMC9663587.
# Legend:
# Neratinib/HKI272 = compound: CCOc1cc2ncc(C#N)c(Nc3ccc(OCc4ccccn4)c(Cl)c3)c2cc1NC(=O)/C=C/CN(C)C [Neratinib/HKI272]; test: increase in dead-cell fraction, 72 h; higher = more death;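 further: breast cancer cell lines in 384-well plates, stained with Hoechst plus LIVE/DEAD far red dye and imaged, cells above an LDR intensity threshold counted dead, Hoechst-negative corpses included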
# [1] = compound: CCc1cnn2c(NCc3ccc[n+]([O-])c3)cc(N3CCCC[C@H]3CCO)nc12; test: as above
# [2] = compound: CCN1CCN(Cc2ccc(Nc3ncc(F)c(-c4cc(F)c5nc(C)n(C(C)C)c5c4)n3)nc2)CC1; test: as above
# Flavopiridol [3] = compound: T1, CN1CC[C@H](c2c(O)cc(O)c3c(=O)cc(-c4ccccc4Cl)oc23)[C@H](O)C1 [Flavopiridol]; test: as above
# LEE011/Ribociclib = compound: CN(C)C(=O)c1cc2cnc(Nc3ccc(N4CCNCC4)cn3)nc2n1C1CCCC1 [LEE011/Ribociclib]; test: as above
# BSJ-03-123 = compound: CC(=O)c1c(C)c2cnc(Nc3ccc(N4CCN(CCOCCOCCOCCNC(=O)COc5cccc6c5C(=O)N(C5CCC(=O)NC5=O)C6=O)CC4)cn3)nc2n(C2CCCC2)c1=O [BSJ-03-123]; test: as above
# [4] = compound: CC(=O)c1c(C)c2cnc(Nc3ccc(N4CCNCC4)cn3)nc2n(C2CCCC2)c1=O; test: as above
# THZ1 [5] = compound: T2, CN(C)C/C=C/C(=O)Nc1ccc(C(=O)Nc2cccc(Nc3ncc(Cl)c(-c4c[nH]c5ccccc45)n3)c2)cc1 [THZ1]; test: as above
# THZ531 = compound: CN(C)C/C=C/C(=O)Nc1ccc(C(=O)N2CCC[C@@H](Nc3ncc(Cl)c(-c4c[nH]c5ccccc45)n3)C2)cc1 [THZ531]; test: GR value, 72 h; higher = faster growth (1 = untreated, <0 = killing);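 further: breast cancer and non-malignant breast epithelial lines, nine half-log doses, viable cells counted by Hoechst and LIVE/DEAD dye imaging versus time-zero plates and DMSO controls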
# Flavopiridol [6] = compound: T1, Flavopiridol; test: as above
# [7] = compound: CC(=O)c1c(C)c2cnc(Nc3ccc(N4CCNCC4)cn3)nc2n(C2CCCC2)c1=O; test: as above
# THZ1 [8] = compound: T2, THZ1; test: as above
cell line,measurement,setting,value
HCC1954,increase in dead-cell fraction,Neratinib/HKI272; 0.0003162 µM,0.0018
same,increase in dead-cell fraction,Neratinib/HKI272; 0.001 µM,0.0012
same,increase in dead-cell fraction,Neratinib/HKI272; 0.003162 µM,0.0264
same,increase in dead-cell fraction,Neratinib/HKI272; 0.01 µM,0.0121
same,increase in dead-cell fraction,Neratinib/HKI272; 0.03162 µM,0.0581
same,increase in dead-cell fraction,Neratinib/HKI272; 0.1 µM,0.111
same,increase in dead-cell fraction,Neratinib/HKI272; 0.3162 µM,0.17
same,increase in dead-cell fraction,Neratinib/HKI272; 1 µM,0.264
same,increase in dead-cell fraction,Neratinib/HKI272; 3.162 µM,0.42
same,increase in dead-cell fraction,[1]; 0.0001 µM,-0.0062
same,increase in dead-cell fraction,[1]; 0.0003162 µM,-0.012
same,increase in dead-cell fraction,[1]; 0.001 µM,-0.0086
same,increase in dead-cell fraction,[1]; 0.003162 µM,-0.0038
same,increase in dead-cell fraction,[1]; 0.01 µM,0.0856
same,increase in dead-cell fraction,[1]; 0.03162 µM,0.615
same,increase in dead-cell fraction,[1]; 0.1 µM,0.704
same,increase in dead-cell fraction,[1]; 0.3162 µM,0.691
same,increase in dead-cell fraction,[1]; 1 µM,0.7
same,increase in dead-cell fraction,[2]; 0.001 µM,-0.0023
same,increase in dead-cell fraction,[2]; 0.003162 µM,-0.0166
same,increase in dead-cell fraction,[2]; 0.01 µM,-0.0193
same,increase in dead-cell fraction,[2]; 0.03162 µM,-0.0017
same,increase in dead-cell fraction,[2]; 0.1 µM,-0.0058
same,increase in dead-cell fraction,[2]; 0.3162 µM,-0.0054
same,increase in dead-cell fraction,[2]; 1 µM,0.0303
same,increase in dead-cell fraction,[2]; 3.162 µM,0.11
same,increase in dead-cell fraction,[2]; 10 µM,0.683
same,increase in dead-cell fraction,Flavopiridol [3]; 0.0001 µM,0.0057
same,increase in dead-cell fraction,Flavopiridol [3]; 0.0003162 µM,0.0003
same,increase in dead-cell fraction,Flavopiridol [3]; 0.001 µM,0.0047
same,increase in dead-cell fraction,Flavopiridol [3]; 0.003162 µM,0.0096
same,increase in dead-cell fraction,Flavopiridol [3]; 0.01 µM,0.0025
same,increase in dead-cell fraction,Flavopiridol [3]; 0.03162 µM,0.0079
same,increase in dead-cell fraction,Flavopiridol [3]; 0.1 µM,0.03
same,increase in dead-cell fraction,Flavopiridol [3]; 0.3162 µM,0.143
same,increase in dead-cell fraction,Flavopiridol [3]; 1 µM,0.733
same,increase in dead-cell fraction,LEE011/Ribociclib; 0.001 µM,0.0048
same,increase in dead-cell fraction,LEE011/Ribociclib; 0.003162 µM,0.0062
same,increase in dead-cell fraction,LEE011/Ribociclib; 0.01 µM,-0.0065
same,increase in dead-cell fraction,LEE011/Ribociclib; 0.03162 µM,0.0067
same,increase in dead-cell fraction,LEE011/Ribociclib; 0.1 µM,0.006
same,increase in dead-cell fraction,LEE011/Ribociclib; 0.3162 µM,0.0179
same,increase in dead-cell fraction,LEE011/Ribociclib; 1 µM,0.0102
same,increase in dead-cell fraction,LEE011/Ribociclib; 3.162 µM,0.0144
same,increase in dead-cell fraction,LEE011/Ribociclib; 10 µM,0.0111
same,increase in dead-cell fraction,BSJ-03-123; 0.001 µM,0.0014
same,increase in dead-cell fraction,BSJ-03-123; 0.003162 µM,0.0109
same,increase in dead-cell fraction,BSJ-03-123; 0.01 µM,0.0001
same,increase in dead-cell fraction,BSJ-03-123; 0.03162 µM,0.004
same,increase in dead-cell fraction,BSJ-03-123; 0.1 µM,0.0138
same,increase in dead-cell fraction,BSJ-03-123; 0.3162 µM,0.0101
same,increase in dead-cell fraction,BSJ-03-123; 1 µM,0.0096
same,increase in dead-cell fraction,BSJ-03-123; 3.162 µM,0.0252
same,increase in dead-cell fraction,BSJ-03-123; 10 µM,0.141
same,increase in dead-cell fraction,[4]; 0.0003162 µM,-0.0089
same,increase in dead-cell fraction,[4]; 0.001 µM,-0.001
same,increase in dead-cell fraction,[4]; 0.003162 µM,-0.0131
same,increase in dead-cell fraction,[4]; 0.01 µM,-0.0027
same,increase in dead-cell fraction,[4]; 0.03162 µM,-0.0121
same,increase in dead-cell fraction,[4]; 0.1 µM,-0.0026
same,increase in dead-cell fraction,[4]; 0.3162 µM,-0.0021
same,increase in dead-cell fraction,[4]; 1 µM,-0.0019
same,increase in dead-cell fraction,[4]; 3.162 µM,0.0043
same,increase in dead-cell fraction,THZ1 [5]; 0.0001 µM,-0.0011
same,increase in dead-cell fraction,THZ1 [5]; 0.0003162 µM,0.0018
same,increase in dead-cell fraction,THZ1 [5]; 0.001 µM,0.0068
same,increase in dead-cell fraction,THZ1 [5]; 0.003162 µM,-0.0006
same,increase in dead-cell fraction,THZ1 [5]; 0.01 µM,-0.0054
same,increase in dead-cell fraction,THZ1 [5]; 0.03162 µM,0.0087
same,increase in dead-cell fraction,THZ1 [5]; 0.1 µM,0.0688
same,increase in dead-cell fraction,THZ1 [5]; 0.3162 µM,0.153
same,increase in dead-cell fraction,THZ1 [5]; 1 µM,0.596
same,GR value,THZ531; 0.0001 µM,1.04 GR
same,GR value,THZ531; 0.0003162 µM,1.06 GR
same,GR value,THZ531; 0.001 µM,0.921 GR
same,GR value,THZ531; 0.003162 µM,1.04 GR
same,GR value,THZ531; 0.01 µM,1.07 GR
same,GR value,THZ531; 0.03162 µM,1.05 GR
same,GR value,THZ531; 0.1 µM,0.873 GR
same,GR value,THZ531; 0.3162 µM,0.66 GR
same,GR value,THZ531; 1 µM,-0.297 GR
same,GR value,Flavopiridol [6]; 0.0001 µM,1.01 GR
same,GR value,Flavopiridol [6]; 0.0003162 µM,0.967 GR
same,GR value,Flavopiridol [6]; 0.001 µM,0.962 GR
same,GR value,Flavopiridol [6]; 0.003162 µM,0.996 GR
same,GR value,Flavopiridol [6]; 0.01 µM,0.907 GR
same,GR value,Flavopiridol [6]; 0.03162 µM,0.928 GR
same,GR value,Flavopiridol [6]; 0.1 µM,0.613 GR
same,GR value,Flavopiridol [6]; 0.3162 µM,0.0144 GR
same,GR value,Flavopiridol [6]; 1 µM,-0.52 GR
same,GR value,[7]; 0.0003162 µM,1.14 GR
same,GR value,[7]; 0.001 µM,1.02 GR
same,GR value,[7]; 0.003162 µM,1.07 GR
same,GR value,[7]; 0.01 µM,0.905 GR
same,GR value,[7]; 0.03162 µM,0.863 GR
same,GR value,[7]; 0.1 µM,0.733 GR
same,GR value,[7]; 0.3162 µM,0.611 GR
same,GR value,[7]; 1 µM,0.57 GR
same,GR value,[7]; 3.162 µM,0.523 GR
same,GR value,THZ1 [8]; 0.0001 µM,1.03 GR
same,GR value,THZ1 [8]; 0.0003162 µM,0.958 GR
same,GR value,THZ1 [8]; 0.001 µM,1.01 GR
same,GR value,THZ1 [8]; 0.003162 µM,1 GR
same,GR value,THZ1 [8]; 0.01 µM,0.939 GR
same,GR value,THZ1 [8]; 0.03162 µM,0.85 GR
same,GR value,THZ1 [8]; 0.1 µM,0.491 GR
same,GR value,THZ1 [8]; 0.3162 µM,-0.0278 GR
same,GR value,THZ1 [8]; 1 µM,-0.507 GR
